28 compounds from patent US8648066B2 (Exelixis, Inc., priority 2009, dated 2014) can be followed below.

This experiment has as its target mTOR/GbL/Raptor (mTORC1) (Homo sapiens, UniProt P42345). As to the kind of experiment: mTOR/GbL/Raptor (mTORC1) ELISA assay. The format is biochemical. To be noted: phosphorylation of 4E-BP1; 0.2 nM mTORC1, 10 μM ATP; read-out: IC50 in this assay (mTORC1 ELISA). The method, boiled down:
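Human mTORC1 (0.2 nM) phosphorylated 50 nM His-tagged 4E-BP1 with 10 µM ATP in HEPES pH 7.2 containing 10 mM MnCl2, 120 min at ambient temperature. Substrate was captured on Ni-chelate plates; phospho-4E-BP1 was detected by primary antibody and HRP secondary with luminescence.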

One may read the IC50 as the point on the concentration scale where inhibition reaches its midpoint. Take `CC(O)CNS(=O)(=O)c1cc(-c2ccc3c(c2)CN(c2ncnc4c2CC(C)(C)CC4)CCO3)cnc1N` (stereo not shown) [Example 372, 2-amino-5-[4-(6,6-dimethyl-5,6,7,8-tetrahydroquinazolin-4-yl)-2,3,4,5-tetrahydro-1,4-benzoxazepin-7-yl]-N-(2-hydroxypropyl)pyridine-2-sulfonamide]: the IC50 was 10 to 50 nM. For the compound `CC1(C)CCc2ncnc(N3CCOc4ccc(-c5cnc(N)c(S(=O)(=O)NCC(F)(F)F)c5)cc4C3)c2C1` [Example 365, 2-amino-5-[4-(6,6-dimethyl-5,6,7,8-tetrahydroquinazolin-4-yl)-2,3,4,5-tetrahydro-1,4-benzoxazepin-7-yl]-N-(2,2,2-trifluoroethyl)pyridine-3-sulfonamide], the half-maximal inhibitory concentration (IC50) was 10 to 50 nM. For `COC(=O)Nc1nc2ccc(-c3ccc4c(c3)CN(c3ncnc5ccc(OC)cc35)CCO4)cc2[nH]1` [Example 112, methyl (6-{4-[6-(methyloxy)quinazolin-4-yl]-2,3,4,5-tetrahydro-1,4-benzoxazepin-7-yl}-1H-benzimidazol-2-yl)carbamate], the IC50 fell in the range of 250 to 1000 nM. The same measure for `CCCOc1ccc2ncnc(N3CCOc4ccc(-c5ccc6nc(C)[nH]c6c5)cc4C3)c2c1` [Example 162, 7-(2-methyl-1H-benzimidazol-6-yl)-4-[6-(propyloxy)quinazolin-4-yl]-2,3,4,5-tetrahydro-1,4-benzoxazepine]: 250 to 1000 nM; for `c1cc(N2CCOc3ccc(-c4cnc5nc[nH]c5c4)cc3C2)ncn1` [Example 543, 7-(1H-imidazo[4,5-b]pyridin-6-yl)-4-pyrimidin-4-yl-2,3,4,5-tetrahydro-1,4-benzoxazepine]: 1000 to 2000 nM; for `Cc1cccc(Cl)c1S(=O)(=O)Nc1cc(-c2ccc3c(c2)CN(c2ncnc4c2CC(C)(C)CC4)CCO3)cnc1Cl` [Example 429, 2-chloro-N-{2-chloro-5-[4-(6,6-dimethyl-5,6,7,8-tetrahydroquinazolin-4-yl)-2,3,4,5-tetrahydro-1,4-benzoxazepin-7-yl]pyridin-3-yl}-6-methylbenzenesulfonamide]: 250 to 1000 nM. The same measure for `Cc1nc(Nc2ccccc2)c(C)c(N2CCOc3ccc(-c4ccc5nc[nH]c5c4)cc3C2)n1` [Example 529, 6-[7-(1H-benzimidazol-6-yl)-2,3-dihydro-1,4-benzoxazepin-4(5H)-yl]-2,5-dimethyl-N-phenylpyrimidin-4-amine]: 250 to 1000 nM; for `CC1(C)CCc2ncnc(N3CCOc4ccc(-c5cnc(N)c(S(=O)(=O)N6CC[C@H](N)C6)c5)cc4C3)c2C1` [Example 452, 3-{[(3S)-3-aminopyrrolidin-1-yl]sulfonyl}-5-[4-(6,6-dimethyl-5,6,7,8-tetrahydroquinazolin-4-yl)-2,3,4,5-tetrahydro-1,4-benzoxazepin-7-yl]pyridin-2-amine]: not above 10 nM. Regarding `Cc1nc2cc(-c3ccc4c(c3)CN(c3nc(CN(C)C)nc(C)c3Br)CCO4)ccc2[nH]1` [Example 666, 1-{5-bromo-4-methyl-6-[7-(2-methyl-1H-benzimidazol-5-yl)-2,3-dihydro-1,4-benzoxazepin-4(5H)-yl]pyrimidin-2-yl}-N,N-dimethylmethanamine], the IC50 was not below 2000 nM.

In the case of `CC1(C)CCc2ncnc(N3CCOc4ccc(-c5cnc(N)c(S(=O)(=O)NCC(O)CO)c5)cc4C3)c2C1` (stereo not shown) [Example 402, 2-amino-N-(2,3-dihydroxypropyl)-5-[4-(6,6-dimethyl-5,6,7,8-tetrahydroquinazolin-4-yl)-2,3,4,5-tetrahydro-1,4-benzoxazepin-7-yl]pyridine-3-sulfonamide], the concentration for half-maximal inhibition (IC50) is not above 10 nM. On to `CNC1CN(S(=O)(=O)c2cc(-c3ccc4c(c3)CN(c3ncnc5c3CC(C)(C)CC5)CCO4)cnc2N)C1` [Example 519, 5-[4-(6,6-dimethyl-5,6,7,8-tetrahydroquinazolin-4-yl)-2,3,4,5-tetrahydro-1,4-benzoxazepin-7-yl]-3-{[3-(methylamino)azetidin-1-yl]sulfonyl}pyridin-2-amine], for which the half-inhibitory concentration (IC50) is 10 to 50 nM. Regarding `c1ccc2c(N3CCOc4ccc(-c5ccc6nccnc6c5)cc4C3)ccnc2c1` [Example 132, 4-quinolin-4-yl-7-quinoxalin-6-yl-2,3,4,5-tetrahydro-1,4-benzoxazepine], the IC50 is not below 2000 nM. Regarding `Cc1nc2ncc(-c3ccc4c(c3)CN(c3ncnc(NC(C)C)c3C)CCO4)cc2[nH]1` [Example 525, 5-methyl-N-(1-methylethyl)-6-[7-(2-methyl-1H-imidazo[4,5-b]pyridin-6-yl)-2,3-dihydro-1,4-benzoxazepin-4(5H)-yl]pyrimidin-4-amine], the IC50 was 250 to 1000 nM.

`C=CCc1c(C)nc(CN(C)C)nc1N1CCOc2ccc(-c3cnc4sc(N)nc4c3)cc2C1` [Example 670, 6-(4-{2-[(dimethylamino)methyl]-6-methyl-5-prop-2-en-1-ylpyrimidin-4-yl}-2,3,4,5-tetrahyhdro-1,4-benzoxazepin-7-yl)[1,3]thiazolo[5,4-b]pyridin-2-amine]: the IC50 was 10 to 50 nM. For `Cc1nc2ncc(-c3ccc4c(c3)CN(c3ncnc(C)c3C(C)C)CCO4)cc2[nH]1` [Example 564, 7-(2-methyl-1H-imidazo[4,5-b]pyridin-6-yl)-4-[6-methyl-5-(1-methylethyl)pyrimidin-4-yl]-2,3,4,5-tetrahydro-1,4-benzoxazepine] the value was not above 10 nM; for `CC1(C)CCc2ncnc(N3CCOc4ccc(-c5cnc(N)c(S(=O)(=O)NC[C@@H]6CCNC6)c5)cc4C3)c2C1` [Example 388, 2-amino-5-[4-(6,6-dimethyl-5,6,7,8-tetrahydroquinazolin-4-yl)-2,3,4,5-tetrahydro-1,4-benzoxazepin-7-yl]-N-[(3R)-pyrrolidin-3-ylmethyl]pyridine-3-sulfonamide], 10 to 50 nM. The same measure for `CC(N)CNS(=O)(=O)c1cc(-c2ccc3c(c2)CN(c2ncnc4c2CC(C)(C)CC4)CCO3)cnc1N` (stereo not shown) [Example 410, 2-amino-N-(2-aminopropyl)-5-[4-(6,6-dimethyl-5,6,7,8-tetrahydroquinazolin-4-yl)-2,3,4,5-tetrahydro-1,4-benzoxazepin-7-yl]pyridine-3-sulfonamide]: 50 to 250 nM; for `Cc1nc2ncc(-c3ccc4c(c3)CN(c3ncnc(N5CCN(C)CC5)c3C)CCO4)cc2[nH]1` [Example 563, 7-(2-methyl-1H-imidazo[4,5-b]pyridin-6-yl)-4-[5-methyl-6-(4-methylpiperazin-1-yl)pyrimidin-4-yl]-2,3,4,5-tetrahydro-1,4-benzoxazepine]: 250 to 1000 nM; for `Cc1nc(N)sc1-c1ccc2c(c1)CN(c1ncnc3c1CCC(C)(C)C3)CCO2` [Example 156, 5-[4-(7,7-dimethyl-5,6,7,8-tetrahydroquinazolin-4-yl)-2,3,4,5-tetrahydro-1,4-benzoxazepin-7-yl]-4-methyl-1,3-thiazol-2-amine]: 10 to 50 nM.

As for `CC(C)Nc1nc2ccc(-c3ccc4c(c3)CN(c3ccnc5ccccc35)CCO4)cc2[nH]1` [Example 209, N-(1-methylethyl)-6-(4-quinolin-4-yl-2,3,4,5-tetrahydro-1,4-benzoxazepin-7-yl)-1H-benzimidazol-2-amine], the 50% inhibitory concentration (IC50) was not below 2000 nM. For `Cc1ncc(-c2ccc3c(c2)CN(c2ncnc4c2CC(C)(C)CC4)CCO3)cc1NS(C)(=O)=O` [Example 633, N-{5-[4-(6,6-dimethyl-5,6,7,8-tetrahydroquinazolin-4-yl)-2,3,4,5-tetrahydro-1,4-benzoxazepin-7-yl]-2-methylpyridin-3-yl}methanesulfonamide] the value was 50 to 250 nM; for `COCc1nc2c(c(N3CCOc4ccc(-c5cnc6[nH]c(C)nc6c5)cc4C3)n1)CC(C)(C)CC2` [Example 508, 4-{6,6-dimethyl-2-[(methyloxy)methyl]-5,6,7,8-tetrahydroquinazolin-4-yl}-7-(2-methyl-3H-imidazo[4,5-b]pyridin-6-yl)-2,3,4,5-tetrahydro-1,4-benzoxazepine], not above 10 nM; for `Cc1nc2ncc(-c3ccc4c(c3)CN(c3ncnc5c3CCC(CO)C5)CCO4)cc2[nH]1` (stereo not shown) [Example 309, {4-[7-(2-methyl-1H-imidazo[4,5-b]pyridin-6-yl)-2,3-dihydro-1,4-benzoxazepin-4(5H)-yl]-5,6,7,8-tetrahydroquinazolin-7-yl}methanol], 50 to 250 nM.

`COC1Cc2nc(CN(C)C)nc(N3CCOc4ccc(-c5ccc6scnc6c5)cc4C3)c2CC1(C)C` (stereo not shown) [Example 338, 1-{4-[7-(1,3-benzothiazol-5-yl)-2,3-dihydro-1,4-benzoxazepin-4(5H)-yl]-6,6-dimethyl-7-(methyloxy)-5,6,7,8-tetrahydroquinazolin-2-yl}-N,N-dimethylmethanamine]: the IC50 is not below 2000 nM.

As to `COc1ccc2c(N3CCOc4ccc(-c5cnc(N)c(S(=O)(=O)N6CC[C@H](N)C6)c5)cc4C3)ncnc2c1` [Example 454, 3-{[(3S)-3-aminopyrrolidin-1-yl]sulfonyl}-5-{4-[7-(methyloxy)quinazolin-4-yl]-2,3,4,5-tetrahydro-1,4-benzoxazepin-7-yl}pyridin-2-amine], the IC50 lay within 250 to 1000 nM. Consider `CCNc1nc2ccc(-c3ccc4c(c3)CN(c3ccncn3)CCO4)cc2[nH]1` [Example 277, N-ethyl-6-(4-pyrimidin-4-yl-2,3,4,5-tetrahydro-1,4-benzoxazepin-7-yl)-1H-benzimidazol-2-amine], for which the IC50 was 1000 to 2000 nM. For `CC(C)(CO)CNS(=O)(=O)c1cc(-c2ccc3c(c2)CN(c2ncnc4c2CC(C)(C)CC4)CCO3)cnc1N` [Example 374, 2-amino-5-[4-(6,6-dimethyl-5,6,7,8-tetrahydroquinazolin-4-yl)-2,3,4,5-tetrahydro-1,4-benzoxazepin-7-yl]-N-(3-hydroxy-2,2-dimethylpropyl)pyridine-3-sulfonamide] the value was 50 to 250 nM; for `Cc1nc2cc(-c3ccc4c(c3)CN(c3nc(CN5CCCC5)nc(C)c3C(C)C)CCO4)ccc2[nH]1` [Example 675], 50 to 250 nM.
